# Article PMC5874699, “Antimicrobial and Antibiofilm Activity of UP-5, an Ultrashort Antimicrobial Peptide Designed Using Only Arginine and Biphenylalanine” (Pharmaceuticals, 2018)
# Assays:
# [1] = test system: P. aeruginosa (ATCC BAA-2114); assay: Broth microdilution checkerboard, UP-5 with antibiotics; assay type: cell-based, Pseudomonas aeruginosa; conditions: for Effect of the combination according to FIC value: P. aeruginosa (ATCC 2114 as printed); for Effect of the combination according to FIC value / FIC Index: antibiotic-UP-5 combination; for Antibiotics Reduction in MIC (%) / Antibiotics MIC in Combination / FIC Index: P. auroginosa ATCC BAA-2114; for Antibiotics Reduction in MIC (%): antibiotic MIC in combination with UP-5 compared to MIC alone; for Antibiotics MIC in Combination: antibiotic in combination with UP-5, checkerboard, triplicate; for FIC Index: checkerboard
# Source text: (§1) All bacterial susceptibility, biofilm, and synergistic assays of peptides, antibiotics, and peptides-antibiotics combinations used bacterial strains obtained from the American Type Tissue Culture Collection (ATCC, Manassas, VA, USA) that states the mechanism of resistance for each strain according to ATCC number. Gram-positive bacteria were represented by five strains, the wild type strain Staphylococcus aureus (ATCC 29213) and methicillin-resistant S. aureus (MRSA) (ATCC 33591) in addition to clinically isolated strains S. aureus (ATCC BAA-41& 43300) and Enterococcus faecalis (ATCC BAA-2316). The Gram-negative bacteria strains were represented by wild type strains of Escherichia coli (ATCC 25922 & 35218) and Pseudomonas aeruginosa (ATCC 27853) as well as the clinically isolated multidrug-resistant strain P. aeruginosa (ATCC BAA-2114). The bacteria were cultured onto Muller Hinton Agar (Scharlab, S.L, Barcelona, Spain). Mueller Hinton Broth (Oxoid Ltd., Basingstoke, UK) was used to prepare all bacterial suspensions and to dissolve the peptides and the antibiotics. The assay was performed in sterile 96-well polypropylene microtiter plates.
# (§2) According to the broth microdilution checkerboard technique, the MIC and MBC values of peptide-antibiotics combinations against wild type and multidrug resistant bacterial strains were determined. Serial concentrations of peptide and each antibiotic were prepared in the range of 0.005–100 μM. In each well of a 96-well microtiter plate, 25 μL of each peptide concentration were added to 25 μL of each antibiotic concentration which is followed by adding 50 μL of diluted bacterial suspension (10^6 CFU/mL) to each well. The prepared concentrations of peptide and each antibiotic were arranged into rows and columns, respectively, in a 96-well microtiter plate according the checkerboard technique. Then as described previously (see Section 2.4.1), the procedure was followed. All MIC and MBC determinations of all assays were made in triplicate.
# (§3) The fractional inhibitory concentration (FIC) is defined as the inhibitory concentration of the antimicrobial combination divided by that of the single antimicrobial component. To calculate FIC index for peptide-antibiotic combinations, the following equation was used:(1) FIC index=MIC of drug X in combination/MIC of drug X alone+MIC of drug Y in combination/MIC of drug Y alone
# (§4) The FIC indices were interpreted as follows: ≤0.5: synergistic activity, 0.5–1: additive activity, 1–4 indifferent, >4: antagonism. Interpretation and assessment of the FIC indices were performed according to the broth microdilution checkerboard technique.
# [2] = test system: methicillin-resistant S. aureus (MRSA) (ATCC 33591); assay: MIC/MBC, microbroth dilution (CLSI); assay type: cell-based, Staphylococcus aureus; conditions: S. aureus ATCC 33591, antibiotic alone, triplicate; for Antibiotics MBC Alone: 99.9% killing; for Antibiotics MIC Alone: microbroth dilution
# Source text: as §1
# (§5) All bacterial susceptibility assays were conducted according to the microbroth dilution method outlined by the Clinical and Laboratory Standards Institute (CLSI) guidelines.
# (§6) Briefly, pre-sterilized MHB was used as a growth medium for organisms obtained from stock media with glycerol. Bacterial cells were grown overnight in MHB and diluted to 10^6 CFU/mL in the same medium prior to use. For peptide, serial concentrations in the range of 0.5–100 μM were prepared. Then, 50 μL of each peptide concentration and 50 µL of diluted bacterial suspension were added to each well of a 96-well microtiter plate. Peptide solutions were prepared by dissolving the peptide in sterile MHB. Then, the plates were incubated overnight in a humidified atmosphere, and at 37 °C. Bacterial growth was determined by measuring the optical density (OD) at λ = 600 nm using an ELISA plate reader (Epoch, BioTek, Winooski, VT, USA) and the minimum inhibitory concentration (MIC) was determined.
# (§7) As described in the previous section, the MIC and MBC values of antibiotics employed in this study were determined against subjected bacterial strains via preparing different concentrations of each antibiotic.
# [3] = test system: S. aureus (ATCC 43300); assay: Broth microdilution checkerboard, UP-5 with antibiotics; assay type: cell-based, Staphylococcus aureus; conditions: for Effect of the combination according to FIC value: S. aureus (ATCC 43300); for Effect of the combination according to FIC value / FIC Index: antibiotic-UP-5 combination; for Antibiotics MIC in Combination: antibiotic in combination with UP-5, checkerboard, triplicate; for FIC Index: checkerboard
# Source text: as §1, §2, §3, §4
# [4] = test system: S. aureus (ATCC 33591); assay: as above; assay type: cell-based, Staphylococcus aureus; conditions: for Effect of the combination according to FIC value: S. aureus (ATCC 33591); for Effect of the combination according to FIC value / FIC Index: antibiotic-UP-5 combination; for Antibiotics Reduction in MIC (%) / Antibiotics MIC in Combination / FIC Index: S. aureus ATCC 33591; for Antibiotics Reduction in MIC (%): antibiotic MIC in combination with UP-5 compared to MIC alone; for Antibiotics MIC in Combination: antibiotic in combination with UP-5, checkerboard, triplicate; for FIC Index: checkerboard
# Source text: as §1, §2, §3, §4
# [5] = test system: S. aureus (ATCC BAA-41); assay: as above; assay type: cell-based, Staphylococcus aureus; conditions: for Effect of the combination according to FIC value: S. aureus (ATCC BAA-41); for Effect of the combination according to FIC value / FIC Index: antibiotic-UP-5 combination; for Antibiotics Reduction in MIC (%) / Antibiotics MIC in Combination / FIC Index: S. aureus ATCC BAA-41; for Antibiotics Reduction in MIC (%): antibiotic MIC in combination with UP-5 compared to MIC alone; for Antibiotics MIC in Combination: antibiotic in combination with UP-5, checkerboard, triplicate; for FIC Index: checkerboard
# Source text: as §1, §2, §3, §4
# [6] = test system: S. aureus (ATCC 29213); assay: as above; assay type: cell-based, Staphylococcus aureus; conditions: for Effect of the combination according to FIC value: S. aureus (ATCC 29213); for Effect of the combination according to FIC value / FIC Index: antibiotic-UP-5 combination; for Antibiotics Reduction in MIC (%) / Antibiotics MIC in Combination / FIC Index: S. aureus ATCC 29213; for Antibiotics Reduction in MIC (%): antibiotic MIC in combination with UP-5 compared to MIC alone; for Antibiotics MIC in Combination: antibiotic in combination with UP-5, checkerboard, triplicate; for FIC Index: checkerboard
# Source text: as §1, §2, §3, §4
# [7] = test system: Staphylococcus aureus (ATCC 29213); assay type: cell-based; conditions: S. aureus ATCC 29213, antibiotic alone, triplicate; for Antibiotics MBC Alone: 99.9% killing; for Antibiotics MIC Alone: microbroth dilution
# Source text: as §1, §5, §6, §7
# [8] = test system: P. aeruginosa (ATCC BAA-2114); assay type: cell-based, Pseudomonas aeruginosa; conditions: P. auroginosa ATCC BAA-2114, antibiotic alone, triplicate; for Antibiotics MBC Alone: 99.9% killing; for Antibiotics MIC Alone: microbroth dilution
# Source text: as §1, §5, §6, §7
# [9] = test system: S. aureus (ATCC 43300); assay type: cell-based, Staphylococcus aureus; conditions: S. aureus ATCC 43300, antibiotic alone, triplicate; for Antibiotics MBC Alone: 99.9% killing; for Antibiotics MIC Alone: microbroth dilution
# Source text: as §1, §5, §6, §7
# [10] = test system: S. aureus (ATCC BAA-41); assay type: cell-based, Staphylococcus aureus; conditions: S. aureus ATCC BAA-41, antibiotic alone, triplicate; for Antibiotics MBC Alone: 99.9% killing; for Antibiotics MIC Alone: microbroth dilution
# Source text: as §1, §5, §6, §7
Antibiotics Reduction in MIC (%) [1] [%],Antibiotics MIC in Combination ([3]; S. aureus ATCC 43300) [µM],Structure (SMILES),Effect of the combination according to FIC value [1],Antibiotics MIC in Combination [1] [µM],Antibiotics MBC Alone [2] [µM],Antibiotics MIC Alone [2] [µM],Effect of the combination according to FIC value [3],Effect of the combination according to FIC value [4],Antibiotics Reduction in MIC (%) [4] [%],Antibiotics MIC in Combination [4] [µM],Antibiotics MIC in Combination [5] [µM],Antibiotics MIC in Combination [6] [µM],Antibiotics MBC Alone [7] [µM],Antibiotics MIC Alone [7] [µM],Antibiotics MBC Alone [8] [µM],Antibiotics MIC Alone [8] [µM],Antibiotics MBC Alone [9] [µM],Antibiotics MIC Alone [9] [µM],Antibiotics MBC Alone [10] [µM],Antibiotics MIC Alone [10] [µM],also measured
58.3,5,"C[C@H]1COc2c(N3CCN(C)CC3)c(F)cc3c(=O)c(C(=O)O)cn1c23 [Levofloxacin, levofloxacin]",additive (0.5–1: additive activity),5,10,10,synergistic (≤0.5: synergistic activity),synergistic (≤0.5: synergistic activity),87.5,1.25,10,0.05,0.5,0.5,12,12,20,20,10,10,FIC Index [1]: 0.78; FIC Index ([3]; S. aureus ATCC 43300): 0.25; Antibiotics Reduction in MIC (%) ([4]; listed as levofloxacin): 90%; FIC Index [4]: 0.13; Effect of the combination according to FIC value [5]: indifferent (1–4 indifferent); Antibiotics Reduction in MIC (%) [5]: <50%; FIC Index [5]: 2; Effect of the combination according to FIC value [6]: synergistic (≤0.5: synergistic activity); Antibiotics Reduction in MIC (%) [6]: 90%; Antibiotics Reduction in MIC (%) ([6]; listed as levofloxacin): 87.5%; FIC Index [6]: 0.11
–,–,"CO[C@H]1/C=C/O[C@@]2(C)Oc3c(C)c(O)c4c(O)c(c(/C=N/N5CCN(C)CC5)c(O)c4c3C2=O)NC(=O)/C(C)=C\C=C\[C@H](C)[C@H](O)[C@@H](C)[C@@H](O)[C@@H](C)[C@H](OC(C)=O)[C@@H]1C [Rifampicin, rifampicin]",synergistic (≤0.5: synergistic activity),0.25,0.04,0.04,synergistic (≤0.5: synergistic activity),synergistic (≤0.5: synergistic activity),87.5,0.005,0.002,0.025,0.025,0.025,50,50,1,1,0.005,0.005,"Antibiotics Reduction in MIC (%) ([3]; S. aureus ATCC 43300, antibiotic MIC in combination with UP-5 compared to MIC alone): 87.5%; Effect of the combination according to FIC value [5]: indifferent (1–4 indifferent); Antibiotics Reduction in MIC (%) [5]: 60%; Effect of the combination according to FIC value [6]: indifferent (1–4 indifferent); Antibiotics Reduction in MIC (%) [6]: <50%"
>50,2.5,"CC1(C)S[C@@H]2[C@H](NC(=O)[C@H](N)c3ccccc3)C(=O)N2[C@H]1C(=O)O [Ampicillin, ampicillin]",additive (0.5–1: additive activity),250,85,85,additive (0.5–1: additive activity),synergistic (≤0.5: synergistic activity),85.3,–,20,2.5,2.5,2.5,> 500,> 500,20,20,40,40,Antibiotics Reduction in MIC (%) [6]: <50%

Structure (SMILES),Antibiotics Reduction in MIC (%) [1] [%],Antibiotics MIC in Combination ([3]; S. aureus ATCC 43300) [µM],Effect of the combination according to FIC value [1],Antibiotics MIC in Combination [1] [µM],Antibiotics MBC Alone [2] [µM],Antibiotics MIC Alone [2] [µM],Effect of the combination according to FIC value [3],Effect of the combination according to FIC value [4],Antibiotics Reduction in MIC (%) [4] [%],Antibiotics MIC in Combination [4] [µM],Antibiotics MIC in Combination [5] [µM],Antibiotics MIC in Combination [6] [µM],Antibiotics MBC Alone [7] [µM],Antibiotics MIC Alone [7] [µM],Antibiotics MBC Alone [8] [µM],Antibiotics MIC Alone [8] [µM],Antibiotics MBC Alone [9] [µM],Antibiotics MIC Alone [9] [µM],Antibiotics MBC Alone [10] [µM],Antibiotics MIC Alone [10] [µM],also measured
"O=C(N[C@H](CO)[C@H](O)c1ccc([N+](=O)[O-])cc1)C(Cl)Cl [Chloramphenicol, chloramphenicol]",93.7,7.5,synergistic (≤0.5: synergistic activity),12.5,150,130,additive (0.5–1: additive activity),additive (0.5–1: additive activity),50,65,7.5,10,30,20,325,200,20,15,30,25,FIC Index [1]: 0.24; FIC Index ([3]; S. aureus ATCC 43300): 1; FIC Index [4]: 1; Effect of the combination according to FIC value [5]: additive (0.5–1: additive activity); Antibiotics Reduction in MIC (%) [5]: 70%; FIC Index [5]: 0.8; Effect of the combination according to FIC value [6]: additive (0.5–1: additive activity); FIC Index [6]: 0.75
